# Values quoted from earlier work in patent US7771771B2, “Phytosterol compositions” (Raisio Nutrition Ltd., priority 1998, dated 2010).
# Key:
# [1] = system: serum cholesterol; details: rats; compared with sitosterol
# [2] = system: cholesterol content of mixed micelles; details: compared with sitosterol
# [3] = system: serum cholesterol; aortic atheroma; details: compared with sitosterol
# [4] = system: LDL cholesterol; details: children with severe familial hypercholesterolemia; compared with sitosterol
# [5] = in words
smiles,measurement,setting,value
CC[C@H](CC[C@@H](C)[C@H]1CC[C@H]2[C@@H]3CC[C@H]4C[C@@H](O)CC[C@]4(C)[C@H]3CC[C@]12C)C(C)C [sitostanol],hypocholesterolemic activity,[1],higher hypocholes-terolemic activity than sitosterol
same,lowering of the cholesterol content of mixed micelles,[2],more efficiently than sitosterol
same,formation of aortic atheroma due to cholesterol feeding,[3],depressed the formation of aortic atheroma due to cholesterol feeding more than did sitosterol
same,reducing elevated levels of LDL cholesterol,[4],significantly more effective than sitosterol
same,absorption,[5],virtually unabsorbed
